These results are taken from patent US8552037B2, “Tricyclic compound and pharmaceutical use thereof” (Takeda Pharmaceutical Company Limited, priority 2006, dated 2013).

Each structure is given as a SMILES string.

Series [1] deals with human melatonin 1 receptors (human MT1 receptors) (Homo sapiens (Human), UniProt P48039). Kind of series: Melatonin receptor binding assay, 2-[125I] Iodomelatonin, CHO-hMelR7 cell membrane fraction. The following applies: binding inhibition of 2-[125I] Iodomelatonin, CHO-hMelR7 membranes, 25° C., 2.5 hr. Here is the method: (§1) Melatonin Receptor Binding Assay
human melatonin 1 receptors (human MT1 receptors), sequence (P48039 whole entry): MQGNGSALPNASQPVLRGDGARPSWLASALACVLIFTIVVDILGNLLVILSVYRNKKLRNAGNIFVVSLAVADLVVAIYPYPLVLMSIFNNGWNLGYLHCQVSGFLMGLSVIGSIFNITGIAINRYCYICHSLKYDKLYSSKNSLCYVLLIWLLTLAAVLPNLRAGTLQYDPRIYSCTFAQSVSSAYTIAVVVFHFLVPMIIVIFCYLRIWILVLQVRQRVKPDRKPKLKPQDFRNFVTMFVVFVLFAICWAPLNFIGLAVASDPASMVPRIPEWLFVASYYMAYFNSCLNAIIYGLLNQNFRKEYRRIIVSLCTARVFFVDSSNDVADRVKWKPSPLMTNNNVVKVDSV
(1) Preparation of CHO-hMelR7 Cells Expressing Human Melatonin 1 Receptors
(§2) (3) Preparation of Cell Membrane Fraction of CHO Cell (CHO-hMelR7 and CHO-hMT2) Stably Expressing Human MT1 and MT2 Receptors
(§3) CHO-hMelR7 and CHO-hMT2 cells were plated using Cellfactory (Nunc, #170009) under the conditions of 1×10^8 cells/2000 mL/flask. The cells were grown to confluent, and recovered by the following method. As the medium for CHO-hMelR7 and CHO-hMT2, MEM α containing 10% FBS and penicillin/streptomycin was used. […] of geneticin was added to the medium for CHO-hMT2.
(§4) The medium was discarded, cells were washed twice with 200 mL of EDTA/PBS(−), 200 mL of EDTA/PBS(−) was further added, and the cells were stood still at room temperature for 20 min until they were released. […] The mixture was further centrifuged at 1,500 rpm for 10 min at 4° C., and the obtained pellets were suspended in 20 mL of ice-cooled homogenizing buffer [10 mM NaHCO3, 5 mM EDTA, Protease inhibitor Complete (Roche), pH 7.4]. The cell suspension was homogenized 3 times using a polytron homogenizer at 20,000 rpm for 30 sec. The obtained homogenate was centrifuged (2,000 rpm, 10 min, 4° C.) using a low speed cooling centrifuge. The supernatant was recovered in an ultracentrifugation tube and ultracentrifuged (40,000 rpm, 60 min, 4° C.) using an ultracentrifuge (Beckman, L-90K). To the obtained pellets was added a suspending buffer [50 mM Tris-HCl, 1 mM EDTA, Protease inhibitor Complete (Roche), pH 7.4], and the pellets were suspended by pipetting. The protein concentration of this suspension was measured, diluted to 2 mg/mL to give cell membrane fractions of CHO-hMelR7 and CHO-hMT2 cells. […] Protein was quantified using BCA protein assay kit (Pierce) with BSA as the standard.
(§5) (4) Preparation of Membrane Fraction Suspension
(§6) Immediately before use, the membrane fractions of CHO-hMelR7 and CHO-hMT2 cells of the above-mentioned (3) were diluted 20-fold with assay buffer (50 mM Tris-HCl, pH 7.7).
(§7) Iodomelatonin (#NEX236, PerkinElmer) was diluted with the assay buffer to 400 pM for MT1 and 1 nM for MT2.
(§8) Then, a test compound (compound solution diluted with DMSO to 200-fold of the final measurement concentration) was added by 2 μL. 2 μL of DMSO was added to each well of the total binding control section, and 100 μM cold Melatonin solution (Sigma, diluted with DMSO to 100 μM) was added to each well of the nonspecific binding control section by 2 μL. Then, the membrane fraction suspension (100 μL) was added. […] Iodomelatonin solution of the above-mentioned (5) was added to each well mentioned above by 20 μL, and a binding reaction was carried out at 25° C. for 2.5 hr in a micromixer (TAITEC, Bioshaker M.BR-024).
(§9) Using a cell harvester (PerkinElmer), the binding reaction mixture in each well of the 96-well plate was transferred to a treated (immersed in 50 mM Tris, pH 7.7 in advance) filter plate (UniFilter GF/C, PerkinElmer) and filtered. After filtration, the plate was washed 4 times with the assay buffer, and dried in a dryer (42° C.) for 2 hr or more. 25 μL of a liquid scintillator (MicroScint O, PerkinElmer) was added to each well of the filter plate after drying, and the luminescence of scintillator was measured by TopCount (PerkinElmer) for 1 min.
(§10) Specific binding is a value obtained by subtracting nonspecific binding from the total binding. The binding inhibitory activity of the test compound is shown by the ratio of the value obtained by subtracting the measurement value when the test compound was added from the total binding, to the specific binding.

Series [2] addresses human melatonin 2 receptors (human MT2 receptors) (Homo sapiens (Human), UniProt P49286). Put plainly: Melatonin receptor binding assay, 2-[125I] Iodomelatonin, CHO-hMT2 cell membrane fraction. Particulars: binding inhibition of 2-[125I] Iodomelatonin, CHO-hMT2 membranes, 25° C., 2.5 hr. Here is the method:
as §1
(2) Preparation of CHO-hMT2 Cells Expressing Human Melatonin 2 Receptors
CHO-K1 cells (ATCC, #CCL-61) were plated at the concentration of 1.5×10^5 cells/cm^2 in a 6 well plate (ASAHI TECHNO GLASS), and cultured under the conditions of 37° C., 5% CO2 for 24 hr.
as §2, §3, §4, §5, §6, §7, §8, §9, §10

Series [3] is described as follows: In vitro metabolic stability test. The format is in vitro ADME. The following applies: human liver microsome, NADPH production system, 37° C., 20 min incubation, HPLC-UV. Here is the method: In Vitro Metabolic Stability Test
(1) Preparation of Analysis Sample
The necessary amounts of the analysis samples were prepared at the following composition ratio. Test compound mixture: 0.1 mol/L phosphate buffer (pH 7.4) (41 μL), control microsome (manufactured by Gentest, human lymphoblastoid cell-derived control microsome, 10 mg protein/mL) (8 μL), and test compound 0.1 mM methanol solution (1 μL). Microsome mixed solution: 0.1 mol/L phosphate buffer (pH 7.4) (9 μL), human liver microsome (manufactured by XENOTECH, H0610, 20 mg protein/mL) (1 μL), and purified water (20 μL). NADPH production system: 50 mmol/L β-NADP+ (200 μL), 500 mmol/L Glucose-6-phosphate (200 μL), 150 unit/mL Glucose-6-phosphate dehydrogenase (200 μL), 0.1 mol/L MgCl2 (1 mL), and purified water (2.4 mL).
Microsome mixed solution (30 μL) and NADPH production system (20 μL) were sequentially dispensed to each well of a 96 well plate (type 3371, Corning), and a test compound mixture (50 μL) was added. Acetonitrile (100 μL) was added before start of incubation at 37° C. or 20 min later to give samples before and after incubation. These samples were centrifuged (3,000 rpm, 10 min), and the supernatant was dispensed to a 96 well plate by about 100 μL and 2-fold diluted with purified water (100 μL). 90 μL thereof was analyzed by HPLC.
HPLC analysis Conditions • Instrument: Shimadzu LC10vp • Column: CAPCELL PAK C18 MGII (4.6×75 mm, 3 μm) • Mobile phase A: 10 mmol/L ammonium acetate:acetonitrile=9:1 • Mobile phase B: 10 mmol/L ammonium acetate:acetonitrile=1:9 • Flow rate: 1 mL/min • Column temperature: 40° C. • Detection: UV (250 nm) • Gradient: […]
(3) Data Analysis and Results
Elimination percentage was determined from the difference in the unchanged compound peak areas before and after the start of the reaction, normalized based on the reaction time and microsome concentration, and the elimination rate (%/min/mg) was calculated.
Background: Liver microsomes are a subcellular fraction often used to study metabolism.

human melatonin 2 receptors (human MT2 receptors), sequence (P49286 whole entry): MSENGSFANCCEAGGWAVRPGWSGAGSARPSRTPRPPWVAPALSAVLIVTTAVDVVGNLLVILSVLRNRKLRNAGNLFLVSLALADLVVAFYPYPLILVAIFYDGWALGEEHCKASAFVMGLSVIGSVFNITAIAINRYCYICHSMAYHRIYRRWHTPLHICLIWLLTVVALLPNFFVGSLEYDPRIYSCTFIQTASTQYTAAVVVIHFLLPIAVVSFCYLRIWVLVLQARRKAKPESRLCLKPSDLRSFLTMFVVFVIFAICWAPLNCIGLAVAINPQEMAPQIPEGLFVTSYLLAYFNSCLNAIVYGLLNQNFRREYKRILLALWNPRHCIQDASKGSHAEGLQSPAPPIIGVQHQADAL

The IC50 is the concentration needed to halve the response being measured. Lower therefore signals inhibition by little substance. As to `CC(=O)NCC[C@@H]1CCc2ccc3nc(C)oc3c21` [Example 12, (S)-N-[2-(2-Methyl-7,8-dihydro-6H-indeno[5,4-d][1,3]oxazol-8-yl)ethyl]acetamide], the IC50 in series [1] was found to be 0.057 nM; in series [2], 0.13 nM. Also, in series [3], the “elimination rate (%/min/mg)” value was −0.3 %/min/mg.

Take `CCC(=O)NCC[C@@H]1CCc2ccc3nc(C)oc3c21` [Example 15, (S)-N-[2-(2-Methyl-7,8-dihydro-6H-indeno[5,4-d][1,3]oxazol-8-yl)ethyl]propionamide]: the IC50 in series [1] was found to be 0.03 nM; in series [2], 0.049 nM. Besides, the “elimination rate (%/min/mg)” value in series [3] was 2.6 %/min/mg.

Consider `CC(=O)NCCC1CCc2ccc3nc(C)sc3c21` (stereo not shown) [Example 19, N-[2-(2-Methyl-7,8-dihydro-6H-indeno[5,4-d][1,3]thiazol-8-yl)ethyl]acetamide], for which the IC50 came to 0.15 nM in series [1] and 0.28 nM in series [2]. In addition, the “elimination rate (%/min/mg)” value in series [3] was 2.4 %/min/mg.

On to `CC(=O)NCC[C@@H]1CCc2ccc3nc(C)sc3c21` [Example 20, (S)-N-[2-(2-Methyl-7,8-dihydro-6H-indeno[5,4-d][1,3]thiazol-8-yl)ethyl]acetamide], for which the IC50 in series [1] is 0.038 nM; in series [2], 0.12 nM. In series [3], the “elimination rate (%/min/mg)” value amounted to 2.7 %/min/mg.

One may read the melting point as the temperature, or range, at which the solid turns liquid. Consider `CC(=O)NCCC1CCc2ccc3nc(C4CC4)oc3c21` (stereo not shown) [Example 29, N-[2-(2-Cyclopropyl-7,8-dihydro-6H-indeno[5,4-d][1,3]oxazol-8-yl)ethyl]acetamide], for which the melting point is 92 to 95 °C. Besides, the IC50 in series [1] was 0.66 nM. For the same compound, the IC50 in series [2] is 0.75 nM.

Consider `COc1nc2ccc3c(c2o1)C(CCNC(C)=O)CC3` (stereo not shown) [Example 38, N-[2-(2-Methoxy-7,8-dihydro-6H-indeno[5,4-d][1,3]oxazol-8-yl)ethyl]acetamide], for which the melting point lay in the range of 126 to 128 °C. Moreover, the IC50 in series [1] was 0.54 nM. Moreover, the IC50 in series [2] amounted to 0.28 nM. For the same compound, the “elimination rate (%/min/mg)” value in series [3] is reported as 2.6 %/min/mg.

For the compound `Cc1nc2ccc3c(c2o1)C(CCNC(=O)C1CC1)CC3` (stereo not shown) [Example 43, N-[2-(2-Methyl-7,8-dihydro-6H-indeno[5,4-d][1,3]oxazol-8-yl)ethyl]cyclopropanecarboxamide], the melting point was in the range of 134 to 137 °C. The IC50 in series [1] came out at 0.25 nM. The IC50 in series [2] was determined as 0.77 nM.

`Cc1nc2ccc3c(c2o1)C(CCNC(=O)C(F)(F)F)CC3` (stereo not shown) [Example 45, 2,2,2-Trifluoro-N-[2-(2-methyl-7,8-dihydro-6H-indeno[5,4-d][1,3]oxazol-8-yl)ethyl]acetamide] came in with a melting point of 104 to 106 °C. This compound also registered an IC50 in series [1] of 0.095 nM. Further, the IC50 in series [2] turned out to be 0.14 nM.
